According to US8623821B2, “Zymogen activators” (Genentech, Inc., priority 2011, dated 2014):
“Also recorded” adds a separate entry of the source. Values belong to the molecule of their own block, whether it stands above or below them. Where a SMILES comes first, the peptide text is derived from it. Bridges are numbered along the chain shown (N, C = ends). [ ]: non-standard residue; d: D form.

Columns and labels:
[1] = target: T1, scHGF β (Homo sapiens, UniProt P14210, R494E); assay: scHGF β activation/Met binding assay (biolayer interferometry); details: for binding to scHGF β / activation of Met binding, in words: Met-coated sensor; for Kd: peptide titration with 0.5 μM scHGF β, biotinylated Met ECD on sensor, ±stdev of n=3; for AC50: peptide-dependent activation of zHGF β binding to surface immobilized Met ECD, read-out: apparent activation constant (AC50); for fold more potent than previously described peptides derived from the native HGF β N-terminus: versus Landgraf et al. 2010 peptides
T1 construct: the scHGF β-chain (residues Asn^479 to Ser^728) contains the R494E mutation; His-tag (C); made in house; host or cells: insect cells (pAcGP67 vector)
T1 sequence (P14210 479-728 R494E): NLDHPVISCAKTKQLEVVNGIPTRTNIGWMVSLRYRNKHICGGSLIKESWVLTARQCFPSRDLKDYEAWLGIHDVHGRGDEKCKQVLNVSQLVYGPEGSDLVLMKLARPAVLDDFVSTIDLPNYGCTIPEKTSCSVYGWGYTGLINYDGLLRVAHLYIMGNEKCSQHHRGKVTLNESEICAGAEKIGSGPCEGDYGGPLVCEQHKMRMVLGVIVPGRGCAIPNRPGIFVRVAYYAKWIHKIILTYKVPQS
T1 sequence (P08581 27-515 partner limits assumed): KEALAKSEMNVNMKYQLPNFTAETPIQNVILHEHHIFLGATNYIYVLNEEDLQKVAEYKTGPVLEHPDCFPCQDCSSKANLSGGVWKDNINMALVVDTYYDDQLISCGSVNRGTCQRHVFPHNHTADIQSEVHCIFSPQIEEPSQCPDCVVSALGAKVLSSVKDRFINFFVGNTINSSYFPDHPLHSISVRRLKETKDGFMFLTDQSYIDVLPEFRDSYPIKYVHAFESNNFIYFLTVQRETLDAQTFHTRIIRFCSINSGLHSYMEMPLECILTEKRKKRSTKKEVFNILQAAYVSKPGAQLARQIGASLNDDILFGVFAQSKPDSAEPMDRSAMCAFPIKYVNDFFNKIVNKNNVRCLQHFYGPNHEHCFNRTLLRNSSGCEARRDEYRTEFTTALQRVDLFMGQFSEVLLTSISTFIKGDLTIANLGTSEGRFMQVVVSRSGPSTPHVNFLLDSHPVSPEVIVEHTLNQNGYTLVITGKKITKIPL
Protocol: (§1) Met binding assays were carried out utilizing the OctetRed™ biolayer interferometry instrument (ForteBio, Inc.) as reported previously (Landgraf, K. E. et al. (2010) J Biol Chem 285: 40362-72). Biotinylated Met ECD (Sema/PSI-AviTag) was captured on the surface of streptavidin optical sensor tips (SA biosensors, ForteBio, Inc.), and transferred into buffer containing 0.5 μM scHGF β-chain variants in the presence of increasing concentration of indicated peptides. Association and dissociation reactions were monitored to ensure reversible binding between scHGF β and Met. Binding was quantified using the steady-state levels of surface response from the association reaction. Equilibrium constants were derived by least squares fitting of the titration data to a single-site binding equation. Errors reported are ±stdev of n=3 independent experiments.
Based on the finding that the consensus ZAPs contain features consistent with binding and inserting into the activation pocket, several related peptides were synthesized and utilized in a previously established scHGF β activation assay to assess their affinities and ability to active Met binding (Landgraf, K. E. et al. (2010) J Biol Chem 285: 40362-72). Since scHGF β can only weakly interact with the Met Sema-PSI domain compared to the active HGF β form, biolayer interferometry was used in the activation assay to measure the ability of a peptide to directly enhance the binding affinity of scHGF β to a streptavidin sensor surface coated with biotinylated Met (Landgraf, K. E. et al. (2010) J Biol Chem 285: 40362-72). Thus, titration of an activator peptide should result in a significant increase in the surface response signal due to enhanced scHGF β binding to Met.

[2] = target: scHGF (Homo sapiens, UniProt P14210, R494E); assay: BxPC-3 cell survival assay, peptide titrations in the presence of scHGF; assay type: cell-based; set-up: Full-length recombinant HGF proteins were expressed in 1-liter fermentation cultures of Chinese hamster ovary (CHO) cells; made in house; host or cells: CHO cells (scHGF); details: for activation of scHGF / cell survival, in words: peptide plus scHGF
scHGF, sequence (P14210 32-728 R494E): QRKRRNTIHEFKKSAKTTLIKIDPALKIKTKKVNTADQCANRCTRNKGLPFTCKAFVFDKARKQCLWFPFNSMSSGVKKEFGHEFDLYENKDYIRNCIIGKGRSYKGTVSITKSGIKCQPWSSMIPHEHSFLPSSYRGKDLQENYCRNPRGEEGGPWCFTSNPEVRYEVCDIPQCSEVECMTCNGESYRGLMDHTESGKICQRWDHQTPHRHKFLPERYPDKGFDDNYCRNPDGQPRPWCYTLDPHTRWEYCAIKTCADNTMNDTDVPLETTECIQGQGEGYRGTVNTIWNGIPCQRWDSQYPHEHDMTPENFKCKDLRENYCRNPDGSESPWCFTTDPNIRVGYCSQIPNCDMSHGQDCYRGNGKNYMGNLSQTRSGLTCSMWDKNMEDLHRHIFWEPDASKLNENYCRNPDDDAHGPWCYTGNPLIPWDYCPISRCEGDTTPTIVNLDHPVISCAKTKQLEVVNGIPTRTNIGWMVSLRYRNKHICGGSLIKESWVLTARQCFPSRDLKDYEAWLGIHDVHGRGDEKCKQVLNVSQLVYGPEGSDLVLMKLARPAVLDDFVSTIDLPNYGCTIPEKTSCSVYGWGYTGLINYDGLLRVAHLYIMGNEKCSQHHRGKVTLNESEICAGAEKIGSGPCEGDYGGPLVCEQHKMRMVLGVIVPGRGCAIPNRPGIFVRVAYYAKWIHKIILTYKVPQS
Protocol: (§2) BxPC-3 cells were obtained from ATCC and maintained in cell culture medium (RPMI, 10% FBS (Sigma), 50 U/ml penicillin/50 μg/ml streptomycin, 2 mM glutamine). For the survival assay, cells were plated at 10,000 cells/well in 96 well tissue culture plates (Falcon 353072) in 50 μl assay diluent (RPMI, 0.1% BSA (Sigma) 50 U/ml penicillin/50 μg/ml streptomycin, 2 mM glutamine). Cells were allowed to attach for 1-2 h in a 37° C. CO2 incubator. Human HGF proteins (HGF, scHGF or scHGF plus peptide titrations) were pre-incubated at room temperature in assay diluent. HGF/peptide mixtures were added to cells in microtiter plates in triplicate at 50 μl per well and plates were incubated at 37° C. in a CO2 incubator. Final concentrations of HGF variants were 400 ng/ml and peptide concentrations were titrated accordingly. After 72 h, 25 μl alamar Blue (Serotec, BUF012B) was added to each well and incubate an additional 2 h at 37° C. in a CO2 incubator. Plates were agitated vigorously for 10 min at room temperature, and fluorescence was read at 530-590 nm in a fluorescent plate reader.
Using Bx-PC3 cells, peptide titrations in the presence of scHGF were performed and observed robust activation was seen of scHGF signaling through Met, which reached levels equivalent HGF-induced signaling.
Cellular assays were used to address whether the optimized ZAPtides act as allosteric activators of pro-HGF and stimulate Met signaling in biologically relevant settings of cell survival and migration. […] Importantly, ZAPtides required the presence of scHGF as well as induced […] cell survival that was antagonized by an HGF-blocking anti-Met antibody, each confirming Met pathway selectivity.

[3] = target: Met; assay: Binding of peptide-zHGF β complex to surface immobilized Met ECD (biolayer interferometry); details: read-out: affinity of peptide-zHGF β complex for Met
Protocol: as §1

[4] = target: T2, scHGF β D672N mutant (Homo sapiens, UniProt P14210, D672N/R494E); assay: scHGF β activation/Met binding assay with activation-pocket mutant; details: Asp672 to Asn in activation pocket
T2 construct: the scHGF β-chain (residues Asn^479 to Ser^728) contains the R494E mutation; His-tag (C); made in house; host or cells: insect cells (pAcGP67 vector)
T2 sequence (P14210 479-728 R494E/D672N): as the sequence (P14210 479-728 R494E) above, with D194N counted along it
Protocol: as §1
However, the partial activity observed with Asp in position 3 was consistent with the fact that the native sequence contains a highly similar Asn residue, but the strained backbone conformation necessary to accommodate the Asp during N-terminal insertion would be energetically unfavorable. […] In addition, the solubility of this peptide variant is enhanced by the polar aspartic acid side chain while maintaining increased activity compared to the IVDG.14 variant.

[5] = system: BxPC-3 cells; assay: BxPC-3 cell survival assay, HGF proteins alone; assay type: cell-based, human
Protocol: as §2, with “Final concentrations of HGF variants were 400 ng/ml and peptide concentrations were titrated accordingly.” left out

[6] = Peptide solubility; assay type: physicochemical

Molecule: G V G G Y P W W M D V (GVGGYPWWMDV) [GVGG.14]
binding to scHGF β / activation of Met binding, in words [1]: lack of activity; also recorded: completely abolished activity
activation of scHGF / cell survival, in words ([2]; BxPC-3 cells): no detectable activity

Kd [1]: 6 ± 1 µM
Molecule: CC[C@H](C)[C@H](N)C(=O)N[C@H](C(=O)NCC(=O)NCC(=O)N[C@@H](CC(=O)O)C(=O)N1CCC[C@H]1C(=O)N[C@@H](Cc1ccc(O)cc1)C(=O)N[C@@H](Cc1c[nH]c2ccccc12)C(=O)N[C@H](C(=O)N1CCC[C@H]1C(=O)N[C@@H](Cc1c[nH]cn1)C(=O)N1CCC[C@H]1C(=O)NCC(=O)N[C@@H](CC(=O)O)C(=O)N[C@@H](C)C(N)=O)C(C)C)[C@@H](C)CC [ZAP.01, I I G G D P Y W V P H P G D A] (H-IIGGDPYWVPHPGDA-NH2; N-terminus assumed)
EC50 of scHGF activation, order of magnitude in words ([2]; Bx-PC3 cell survival, dose-titrations): micromolar

binding to scHGF β / activation of Met binding, in words [1]: no detectable binding
Molecule: I V G D Y P W W M D V (IVGDYPWWMDV) [IVGD.14]

Kd [3]: 690 nM
fold improvement of AC50 over previous activators [1]: > 90 fold
Kd [1]: 34 ± 3 µM
AC50 [1]: 21 µM
fold more potent than previously described peptides derived from the native HGF β N-terminus [1]: ca. 60 fold
Molecule: CC[C@H](C)[C@H](N)C(=O)N[C@H](C(=O)NCC(=O)NCC(=O)N[C@@H](Cc1ccc(O)cc1)C(=O)N1CCC[C@H]1C(=O)N[C@@H](Cc1c[nH]c2ccccc12)C(=O)N[C@@H](Cc1c[nH]c2ccccc12)C(=O)N[C@@H](CCSC)C(=O)N[C@@H](CC(=O)O)C(=O)N[C@H](C(N)=O)C(C)C)C(C)C [IVGG.14, I V G G Y P W W M D V] (H-IVGGYPWWMDV-NH2)
activity of peptide with scHGF β D672N [4]: lack of activity; also recorded: completely abolished activity
EC50 ([2]; BxPC-3 cells, serum starvation, 72 h, alamar Blue, read-out: EC50 of activation of scHGF, cell survival): ~20 µM

Kd [1]: 0.3 ± 0.1 µM
AC50 [1]: 0.3 µM
Molecule: CC[C@H](C)[C@H](N)C(=O)N[C@H](C(=O)NCC(=O)NCC(=O)N[C@H]1CSSC[C@@H](C(=O)N[C@H](C(N)=O)[C@@H](C)CC)NC(=O)[C@H](CCC(=O)O)NC(=O)[C@H](CCC(=O)O)NC(=O)[C@H](CCCNC(=N)N)NC(=O)[C@H](CC(=O)O)NC(=O)[C@H](CCSC)NC(=O)[C@H](Cc2c[nH]c3ccccc23)NC(=O)[C@H](Cc2ccc(O)cc2)NC(=O)[C@@H]2CCCN2C1=O)[C@@H](C)CC [ZAP.03] (H-IIGGCPYWMDREECI-NH2; disulfide 5-14)

Molecule: G I G G C P Y W M D R E E C I (GIGGCPYWMDREECI) [ZAP.03G]
binding to scHGF β / activation of Met binding, in words [1]: significantly impairs its binding; also recorded: significantly impaired
activation of scHGF / cell survival, in words ([2]; BxPC-3 cells): dramatically hindered its activity

Kd [1]: 59 ± 30 µM
binding to scHGF β / activation of Met binding, in words [1]: significantly impaired
Molecule: CC[C@H](C)[C@H](N)C(=O)N[C@H](C(=O)NCC(=O)NCC(=O)N[C@@H](CO)C(=O)N1CCC[C@H]1C(=O)N[C@@H](Cc1ccc(O)cc1)C(=O)N[C@@H](Cc1c[nH]c2ccccc12)C(=O)N[C@@H](CCSC)C(=O)N[C@@H](CC(=O)O)C(=O)N[C@@H](CCCNC(=N)N)C(=O)N[C@@H](CCC(=O)O)C(=O)N[C@@H](CCC(=O)O)C(=O)N[C@@H](CO)C(=O)N[C@H](C(N)=O)[C@@H](C)CC)[C@@H](C)CC [ZAP.03S, I I G G S P Y W M D R E E S I] (H-IIGGSPYWMDREESI-NH2; N-terminus assumed)

AC50 [1]: 42 µM
Molecule: CC[C@H](C)[C@H](N)C(=O)N[C@H](C(=O)NCC(=O)NCC(=O)N[C@@H](CC(=O)O)C(=O)N[C@@H](Cc1ccc(O)cc1)C(=O)N[C@@H](Cc1c[nH]c2ccccc12)C(=O)N[C@@H](Cc1c[nH]c2ccccc12)C(=O)N[C@H](C(=O)N1CCC[C@H]1C(=O)N[C@H](C(N)=O)[C@@H](C)CC)C(C)C)C(C)C [ZAP.09, IVGGDYWWVPI] (H-IVGGDYWWVPI-NH2; N-terminus assumed)

binding to scHGF β / activation of Met binding, in words [1]: no detectable binding
Molecule: I V D D Y P W W M D V (IVDDYPWWMDV) [IVDD.14]

Molecule: CC[C@H](C)[C@H](N)C(=O)N[C@H](C(=O)N[C@@H](CC(=O)O)C(=O)NCC(=O)N[C@@H](Cc1ccc(O)cc1)C(=O)N1CCC[C@H]1C(=O)N[C@@H](Cc1c[nH]c2ccccc12)C(=O)N[C@@H](Cc1c[nH]c2ccccc12)C(=O)N[C@@H](CCSC)C(=O)N[C@@H](CC(=O)O)C(=O)N[C@H](C(N)=O)C(C)C)C(C)C [IVDG.14, I V D G Y P W W M D V] (H-IVDGYPWWMDV-NH2; N-terminus assumed)
activation of scHGF / cell survival, in words ([2]; BxPC-3 cells): partial scHGF signaling activity

Molecule: HGF: proteolytically activated two-chain human hepatocyte growth factor, recombinant
stimulation of cell survival by HGF protein alone ([5]; 200 ng/ml (FIG. 11A)): potently stimulate cell survival
stimulation of cell survival by HGF protein alone ([5]; 400 ng/ml (FIG. 6A)): potently stimulate cell survival

fold more potent than previously described peptides derived from the native HGF β N-terminus [1]: 100 fold
solubility, in words [6]: enhanced
Molecule: CC[C@H](C)[C@H](N)C(=O)N[C@H](C(=O)N[C@H](CC(=O)O)C(=O)NCC(=O)N[C@@H](Cc1ccc(O)cc1)C(=O)N1CCC[C@H]1C(=O)N[C@@H](Cc1c[nH]c2ccccc12)C(=O)N[C@@H](Cc1c[nH]c2ccccc12)C(=O)N[C@@H](CCSC)C(=O)N[C@@H](CC(=O)O)C(=O)N[C@H](C(N)=O)C(C)C)C(C)C [IVdG.14] (H-IV[dD]GYPWWMDV-NH2)
